What was measured:
[1] = Drug uptake in human A549 cells at 10 uM after 15 mins by confocal scanning microscopic analysis; format: ADME, cell-based; conditions: a549, 0.25 h
[2] = Drug uptake in human HeLa cells at 10 uM after 15 mins by confocal scanning microscopic analysis; format: ADME, cell-based; conditions: 0.25 h
[3] = Drug uptake in human SGC-7901 cells at 10 uM after 15 mins by confocal scanning microscopic analysis; format: ADME, cell-based; conditions: sgc-7901, 0.25 h
[4] = Drug uptake in human HepG2 cells at 10 uM after 15 mins by confocal scanning microscopic analysis; format: ADME, cell-based; conditions: hepg2, 0.25 h
[5] = Drug uptake in human HepG2 cells pretreated with galactose for 30 mins followed by compound addition and measured after 15 mins by confocal scanning microscopic analysis; format: ADME, cell-based; conditions: hepg2, 0.75 h, time 45 min
[6] = Drug distribution in Kunming mouse liver at 6 mg/kg, iv measured after 3 hrs by confocal scanning microscopic analysis; format: ADME, organism-based; conditions: in vivo
[7] = Stability of compound in GSH measured upto 24 hrs; format: physicochemical; conditions: GSH (glutathione), read-out: Stability
[8] = Drug distribution in Kunming mouse liver at 8.4 mg/kg, iv measured after 3 hrs by confocal scanning microscopic analysis; format: ADME, organism-based; conditions: in vivo
HepG2 = test: Cytotoxicity against human HepG2 cells at 10 to 80 uM after 24 hrs; format: cell-based; conditions: hepg2, 24 h, dose 10-80 µM

Drug uptake [1] | Drug uptake [2] | Drug uptake [3] | Drug uptake [4] | Drug uptake [5] | Drug uptake [6] | remaining at 24 h [7] [%] | Drug uptake [8] | Structure (SMILES) | Activity (HepG2)
Active | Active | Active | Active | Not Active | Active | – | – | C=C[C@]1(C)CC[C@@H](C(=C)Cn2cc(CN3C(=O)c4cccc5c(N6CCN(C(=O)OCCSSCCOCc7cn([C@@H]8O[C@H](CO)[C@H](O)[C@H](O)[C@H]8O)nn7)CC6)ccc(c45)C3=O)nn2)C[C@H]1C(=C)C | –
– | – | – | – | – | – | 99 | – | C=C[C@]1(C)CC[C@@H](C(=C)Cn2cc(CN3C(=O)c4cccc5c(N6CCN(C(=O)OCCCCCCOCc7cn([C@@H]8O[C@H](CO)[C@H](O)[C@H](O)[C@H]8O)nn7)CC6)ccc(c45)C3=O)nn2)C[C@H]1C(=C)C | –
Active | Active | Active | Active | Not Active | – | – | Active | C=C[C@]1(C)CC[C@@H](C(=C)Cn2cc(CN3C(=O)c4cccc5c(N6CCN(C(=O)OCCSSCCOCC(=O)NC(COCc7cn([C@@H]8O[C@H](CO)[C@H](O)[C@H](O)[C@H]8O)nn7)COCc7cn([C@@H]8O[C@H](CO)[C@H](O)[C@H](O)[C@H]8O)nn7)CC6)ccc(c45)C3=O)nn2)C[C@H]1C(=C)C | Non-Toxic

From ChEMBL document CHEMBL5029167, “Development of Asialoglycoprotein-Mediated Hepatocyte-Targeting Antitumor Prodrugs Triggered by Glutathione” (J Med Chem, 2021)
